The values below come from patent US20240270751A1, “Pyrazolopyridinone Compounds” (BeiGene Ltd., priority 2021, published 2024).

In one assay the target is DGKζ (Homo sapiens (Human), UniProt Q13574). The assay can be described thus: Biochemical DGK IC50 assay, DGKζ ADP-Glo assay. The conditions noted are these: 0.5 nM enzyme, 140 μM ATP, 80 μM DAG; read-out: DGKζ ADP-Glo assay IC50. How it is done: (§1) Enzymatic reactions of DGKζ, DGKα and DGKδ were performed using ADP-Glo assay with lipid micelle substrate. […] Full length DGKα (D21-10BG, SignalChem) and full length DGKδ (D23-10G, SignalChem) were purchased. Lipid micelle was prepared by dissolving DAG (Sigma, 317505-10MG) and PS (Sigma, P7769-100MG) with chloroform which was furtherly removed by rotary evaporation. The resulted product was resuspended in buffer containing 25 mM HEPES pH 7.0, 0.5 mM EDTA and 160 mM Octyl β-D glucopyranoside by vigorous mixing and ultrasonic (IID, Scientz).
(§2) The ranges of compounds final concentration were 1.55˜10000 nM or 23.3˜150000 nM. 3 μL 2× enzyme solution was added to wells.
Human His-TEV-DGK-zeta-pFastBac1 and human baculovirus samples was generated using the Bac-to-Bac baculovirus expression system (Invitrogen) according to the manufacturer's protocol. The DNA used for expression of DGK-zeta, have SEQ ID Nos: 1. Baculovirus amplification was achieved using infected SF9 cells at 1:2000 virus/cells ratios, and grown for 96 hours at 27° C. post-transfected.
The expression scaled up for each protein was carried out in the […] from CORNING. 4 L of 3×10^6 cells/mL Sf9 cells (Expression System, Invitrogen) grown in SF900™ II SFM insect medium (Expression System) was infected with virus stock at 1:200 virus/cells ratio, and grown for 48 hours at 27° C. post-transfection. The infected cell culture was harvested by centrifugation at 6000 rpm for 15 min 4° C. in a SORVALL LYNX6000 centrifuge. The cell pellets were stored at −80° C.
Full length human DGKζ produced as described above, was purified from Sf9 baculovirus-infected insect cell paste. The cells were lysed using sonication method, and the lysates were clarified by centrifugation.

Another assay deals with DGKα (Homo sapiens (Human), UniProt P23743). The assay can be described thus: Biochemical DGK IC50 assay, DGKα ADP-Glo assay. The conditions noted are these: 7.5 nM enzyme, 140 μM ATP, 80 μM DAG. How it is done:
as §1, §2

Structures are written as SMILES.

DGKζ, sequence (Q13574 other isoform, or with tags, fused parts or gaps): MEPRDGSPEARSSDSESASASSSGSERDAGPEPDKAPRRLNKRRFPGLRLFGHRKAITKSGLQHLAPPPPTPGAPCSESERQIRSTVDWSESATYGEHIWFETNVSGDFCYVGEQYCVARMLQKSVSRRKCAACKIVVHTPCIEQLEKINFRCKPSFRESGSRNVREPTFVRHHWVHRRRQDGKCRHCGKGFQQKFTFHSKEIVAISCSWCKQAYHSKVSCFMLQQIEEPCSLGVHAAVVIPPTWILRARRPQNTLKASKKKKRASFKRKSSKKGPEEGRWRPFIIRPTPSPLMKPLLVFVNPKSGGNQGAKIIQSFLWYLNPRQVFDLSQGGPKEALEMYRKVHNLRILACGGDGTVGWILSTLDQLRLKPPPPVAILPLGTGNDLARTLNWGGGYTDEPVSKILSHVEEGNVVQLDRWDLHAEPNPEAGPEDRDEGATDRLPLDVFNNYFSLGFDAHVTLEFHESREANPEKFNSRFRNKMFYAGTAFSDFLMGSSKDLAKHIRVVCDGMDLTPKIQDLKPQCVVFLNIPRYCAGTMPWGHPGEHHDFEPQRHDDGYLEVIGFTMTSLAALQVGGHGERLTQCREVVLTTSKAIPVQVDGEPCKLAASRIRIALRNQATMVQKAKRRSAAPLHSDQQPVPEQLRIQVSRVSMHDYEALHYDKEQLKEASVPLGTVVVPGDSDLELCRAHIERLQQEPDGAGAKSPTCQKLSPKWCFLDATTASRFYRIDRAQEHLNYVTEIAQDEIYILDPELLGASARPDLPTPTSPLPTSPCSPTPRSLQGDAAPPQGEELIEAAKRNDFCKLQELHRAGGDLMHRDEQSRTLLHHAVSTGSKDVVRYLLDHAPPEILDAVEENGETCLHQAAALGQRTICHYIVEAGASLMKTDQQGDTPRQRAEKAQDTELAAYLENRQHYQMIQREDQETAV
DGKα, sequence (P23743 whole entry): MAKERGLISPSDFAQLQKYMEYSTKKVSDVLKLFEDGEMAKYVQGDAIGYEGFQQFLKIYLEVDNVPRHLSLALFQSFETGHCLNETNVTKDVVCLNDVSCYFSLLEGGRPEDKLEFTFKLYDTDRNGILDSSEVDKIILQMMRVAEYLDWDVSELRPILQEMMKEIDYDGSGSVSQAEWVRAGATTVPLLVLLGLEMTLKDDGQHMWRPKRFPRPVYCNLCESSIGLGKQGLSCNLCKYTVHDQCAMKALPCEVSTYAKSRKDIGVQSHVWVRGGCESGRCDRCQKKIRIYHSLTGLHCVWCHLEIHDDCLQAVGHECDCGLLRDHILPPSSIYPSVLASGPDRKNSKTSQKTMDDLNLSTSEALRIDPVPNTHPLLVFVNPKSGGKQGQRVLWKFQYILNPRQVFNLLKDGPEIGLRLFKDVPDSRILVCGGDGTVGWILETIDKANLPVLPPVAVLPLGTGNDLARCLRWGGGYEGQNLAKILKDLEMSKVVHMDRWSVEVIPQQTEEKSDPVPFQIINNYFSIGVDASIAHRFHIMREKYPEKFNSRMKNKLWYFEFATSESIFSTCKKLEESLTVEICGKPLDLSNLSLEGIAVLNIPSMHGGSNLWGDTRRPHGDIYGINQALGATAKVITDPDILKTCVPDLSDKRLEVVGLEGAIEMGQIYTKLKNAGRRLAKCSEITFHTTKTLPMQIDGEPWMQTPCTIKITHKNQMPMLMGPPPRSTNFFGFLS

In the case of `CC[C@H]1CN(C(C)c2cnn(C)c2C(F)F)[C@H](CC)CN1c1cc(=O)n(C)c2cn(CC#N)nc12` (some centres unmarked) [Compound A234], the IC50 on DGKζ came out at 0.159 µM; against DGKα it was 7.33 µM.
For the compound `CC(c1ccc2ncc(C(F)(F)F)nc2c1)N1C[C@H](C)N(c2cc(=O)n(C)c3cn(CC#N)nc23)C[C@H]1C` (stereo partly drawn) [Compound A314, 2-(7-((2S,5R)-2,5-dimethyl-4-(1-(3-(trifluoromethyl)quinoxalin-6-yl)ethyl)piperazin-1-yl)-4-methyl-5-oxo-4,5-dihydro-2H-pyrazolo[4,3-b]pyridin-2-yl)acetonitrile], the IC50 came to 0.689 µM on DGKζ and 84.3 µM against DGKα.
The matching figures for `CC[C@H]1CN(C(C)c2cccc(NC(C)=O)c2)[C@H](CC)CN1c1cc(=O)n(C)c2cn(CC#N)nc12` (some centres unmarked) [Compound A109]: 7.85 µM and 6.17 µM.
As for `COC[C@H]1CN(C(C)c2ccc3nccnc3c2)[C@H](C)CN1c1cc(=O)n(C)c2cn(CC#N)nc12` (stereo partly drawn) [Compound A143, 2-(7-((2R,5R)-2-(methoxymethyl)-5-methyl-4-(1-(quinoxalin-6-yl)ethyl)piperazin-1-yl)-4-methyl-5-oxo-4,5-dihydro-2H-pyrazolo[4,3-b]pyridin-2-yl)acetonitrile], the results for the IC50 at DGKζ and against DGKα were 0.253 µM and above 10 µM, respectively.
`CC[C@H]1CN(C2CCc3ccccc32)[C@H](CC)CN1c1cc(=O)n(C)c2cn(CC#N)nc12` (single isomer, unassigned) [Compound A149a]: the IC50 on DGKζ was 4.16 µM; on DGKα, 4.12 µM.
The matching figures for `CC[C@@H]1CN(c2c(Br)c(=O)n(C)c3cn(CC#N)nc23)CCN1C(C)c1ccc2nccnc2c1` (single isomer, unassigned) [Compound A179b]: above 10 µM and above 10 µM.
Turning to `CC[C@@H]1CN(c2cc(=O)n(C)c3cn(CC#N)nc23)[C@@H](C)CN1C(C)c1ccc(C(F)(F)F)cc1F` (single isomer, unassigned) [Compound A202b], the IC50 on DGKζ came to 3.03 µM; on DGKα, 1.28 µM.
`CC[C@H]1CN(C(C)c2cccc(CN(C)C)c2)[C@H](CC)CN1c1cc(=O)n(C)c2cn(CC#N)nc12` (some centres unmarked) [Compound A151]: the IC50 was 2.04 µM on DGKζ and above 10 µM on DGKα.
With `CC(c1ccc2ncc(CO)nc2c1)N1C[C@H](C)N(c2cc(=O)n(C)c3cn(CC#N)nc23)C[C@H]1C` (stereo partly drawn) [Compound A309, 2-(7-((2S,5R)-4-(1-(3-(hydroxymethyl)quinoxalin-6-yl)ethyl)-2,5-dimethylpiperazin-1-yl)-4-methyl-5-oxo-4,5-dihydro-2H-pyrazolo[4,3-b]pyridin-2-yl)acetonitrile], the IC50 at DGKζ is 0.88 µM; against DGKα, 108 µM.
In the case of `CC[C@H]1CN([C@H](C)c2ncccc2OC)[C@H](CC)CN1c1cc(=O)n(C)c2cn(CC#N)nc12` (single isomer, unassigned) [Compound A92b], at DGKα, the IC50 was above 10 µM.
With `COc1cc(F)ccc1C(C)N1C[C@H](C)N(c2cc(=O)n(C)c3cn(CC#N)nc23)C[C@H]1C` (stereo partly drawn) [Compound A248, 2-(7-((2S,5R)-4-(1-(2-omethoxy-4-fluorophenyl)ethyl)-2,5-dimethylpiperazin-1-yl)-4-methyl-5-oxo-4,5-dihydro-2H-pyrazolo[4,3-b]pyridin-2-yl)acetonitrile], the IC50 against DGKα was above 10 µM.
In the case of `CC[C@H]1CN([C@H](C)c2nc(Cl)cn2CC)[C@H](CC)CN1c1cc(=O)n(C)c2cn(CC#N)nc12` (single isomer, unassigned) [Compound A191b], the IC50 against DGKα was above 10 µM.
Consider `Cc1nc2ccc(C(C)N3C[C@H](C)N(c4cc(=O)n(C)c5cn(CC#N)nc45)C[C@H]3C)cn2n1` (mixture of isomers) [Compound A321], for which, at DGKα, the IC50 is above 150 µM.
The same measure, in the same setting: the result for `CC[C@H]1CN([C@H](C)c2ccc3nccnc3c2)[C@H](CC)CN1c1cc(=O)n(C(C)C)c2cn(CC#N)nc12` (single isomer, unassigned) [Compound A190b] reads above 10 µM.
